Laboratory results: article PMC5524405 (PLoS ONE, 2017)

Columns and labels:
[1] = tested on: CIA DBA/1 mice; assay: Collagen-induced arthritis (CIA) mouse model, preventative dosing, with or without MTX; assay type: in vivo
Description: (§1) Induction of CIA was performed as described previously. In brief, male DBA/1 mice (Harlan Laboratories, 8–10 weeks old) were injected subcutaneously at the base of the tail with bovine type II collagen (200 μg) admixed with reconstituted Sigma Adjuvant System (Sigma-Aldrich). The mice were boosted 21 days later in the same manner. […] Dosing proceeded from day 0 through study completion (36 days).
(§2) Threshold settings were optimized using histomorphometric methods.

[2] = target: CSK (Homo sapiens, UniProt P41240); assay: CSK enzymatic assay
Description: (§6) Product turnover was quantitated using a Caliper LabChip 3000 (Caliper Life Sciences, Hopkinton, MA, USA). […] [^33P]-ATP was used as a substrate at a concentration equal to KM^app, and incorporation of radiolabel into peptide or protein substrates was measured.

[3] = target: BMX (Homo sapiens, UniProt P51813); assay: BMX enzymatic assay; conditions: read-out: Biochemical IC50, BMX; ATP at apparent KM
Description: as §6

[4] = target: Src (Homo sapiens, UniProt P12931); assay: Src enzymatic assay
Description: (§7) Product turnover was quantitated using a Caliper LabChip 3000 (Caliper Life Sciences, Hopkinton, MA, USA). Similar assays were used for other kinases (Tec kinase, interleukin [IL]-2-inducible T-cell kinase, B-lymphocyte kinase, T cell-expressed kinase, and bone marrow-expressed kinase), with ATP concentrations equal to the apparent Michaelis constant (KM^app) for each kinase. […] [^33P]-ATP was used as a substrate at a concentration equal to KM^app, and incorporation of radiolabel into peptide or protein substrates was measured.

[5] = tested on: human peripheral blood B cells; assay: CD40L-induced CD69 expression on peripheral blood B cells; assay type: cell-based; conditions: B-cell, CD40 (CD40L)
Excerpt: (§3) The cells were stained with fluorescein isothiocyanate (FITC)-conjugated mouse anti-human CD20 antibody (BD Pharmingen, San Diego, CA, USA) and either allophycocyanin (APC)-conjugated mouse anti-human CD86 monoclonal antibody (BD Pharmingen) or phycoerythrin (PE)-conjugated mouse anti-human CD69 monoclonal antibody (BD Pharmingen). The amount of CD86 or CD69 expression was quantitated by median fluorescence intensity (MFI) after gating on the CD20-positive B-cell population using fluorescence-activated cell sorting (FACS) analysis. For analogous experiments measuring the effect of CD40 or Toll-like receptor 4 (TLR4) stimulation on these endpoints, either human IZ-CD40L or lipopolysaccharide (LPS) was used to stimulate the cells.

[6] = tested on: CD27+CD20+ memory B cells (peripheral blood); assay: BCR-stimulated CD86 expression on memory B cells; assay type: cell-based; conditions: Homo sapiens, B-cell, BCR (anti-IgM)
Excerpt: as §3

[7] = target: Human recombinant BTK (Homo sapiens, UniProt Q06187); assay: Human recombinant BTK enzymatic assay (Caliper LabChip); conditions: 20 μM ATP, read-out: Biochemical IC50, BTK
Description: as §7

[8] = target: IGF1R (Homo sapiens, UniProt P08069); assay: IGF1R enzymatic assay; conditions: read-out: Biochemical IC50, IGF1R
Description: as §7

[9] = tested on: human tonsillar B cells; assay: BCR-stimulated TNF-α from human tonsillar B cells; assay type: cell-based; conditions: B-cell, BCR (anti-IgM)
Description: (§4) After 1 hour of incubation at 37°C, the cells were stimulated with 40 μg/mL AffiniPure F(ab’)2 fragment goat anti-human IgM (Jackson ImmunoResearch) and 10 ng/mL IL-4 (Peprotech). After an additional 4.5 hours of incubation, the supernatants were collected and the levels of IL-6 and TNF-α were measured using an enzyme immunoassay.

[10] = tested on: CIA DBA/1 mice; assay: CIA mouse model, therapeutic dosing, with or without etanercept; assay type: in vivo; conditions: for Clinical score reduction at end of study: therapeutic (from day 21)
Description: Induction of CIA was performed as described previously. In brief, male DBA/1 mice (Harlan Laboratories, 8–10 weeks old) were injected subcutaneously at the base of the tail with bovine type II collagen (200 μg) admixed with reconstituted Sigma Adjuvant System (Sigma-Aldrich). The mice were boosted 21 days later in the same manner. […]
as §2

[11] = tested on: B cells in mouse whole blood; assay: Mouse whole blood BCR-stimulated CD69 expression on B cells; assay type: cell-based
Description: For mouse whole blood, stimulation used AffiniPure F(ab’)2 fragment goat anti-mouse IgG + IgM (Jackson ImmunoResearch) at 200 μg/mL and 1 ng/mL mouse IL-4 (R&D Systems, Minneapolis, MN, USA) for 5 hours at 37°C with agitation. After staining with APC rat anti-mouse CD19 antibody (BD Biosciences) to identify the B cells, the amount of CD69 expression was quantitated by FACS using FITC-conjugated anti-mouse CD69 monoclonal antibody (BD Biosciences).

[12] = tested on: human B cells; assay: Antigen receptor-dependent signaling and functional endpoints in human B cells (summary); assay type: cell-based; conditions: read-out: IC50, antigen receptor-dependent signaling and functional endpoints (cytokine production, co-stimulatory molecule expression, proliferation)
[13] = tested on: human peripheral blood mononuclear cells; assay: IC-stimulated IL-6 production in peripheral blood mononuclear cells; assay type: cell-based; conditions: PBMC, FcγR (immune complex)
Description: (§5) TNF-α and IL-6 levels were measured using enzyme-linked immunosorbent assay (ELISA; TNF-α OptEIA, BD Biosciences; IL-6 OptEIA, BD Biosciences). For analogous experiments measuring the effect of Toll-like receptor 4 stimulation on these endpoints, lipopolysaccharide (Sigma-Aldrich, St. Louis, MO, USA) was used as the stimulus.

[14] = tested on: human peripheral blood mononuclear cells; assay: IC-stimulated TNF-α production in peripheral blood mononuclear cells; assay type: cell-based; conditions: PBMC, FcγR (immune complex)
Description: as §5

[15] = tested on: CAIA BALB/c mice; assay: Collagen antibody-induced arthritis (CAIA) mouse model; assay type: in vivo
Description: Three days later, mice were injected IP with 1.25 mg/kg LPS from Escherichia coli O111:B4 (Sigma-Aldrich). Mice were monitored daily for development and severity of paw inflammation as described previously [24].

[16] = target: Tec (Homo sapiens, UniProt P42680); assay: Tec kinase enzymatic assay; conditions: ATP at apparent KM; read-out: Biochemical IC50, Tec
Description: as §7

[17] = tested on: KLH-immunized BALB/c mice; assay: Primary anti-KLH antibody responses in mice; assay type: in vivo, mouse
Description: Activity against a KLH-induced antibody response in mice was used as a measure of antigen-driven B-cell responses. Female BALB/c mice (8–12 weeks old) were immunized intraperitoneally (IP) with 250 μg of KLH (Pierce, Rockford, IL, USA) in phosphate-buffered saline on day 0. […] Captured anti-KLH antibodies were detected using horseradish peroxidase-conjugated antibody specific for mouse IgM or IgG (Southern Biotechnology Associates, Birmingham, AL, USA) and the 3,3′,5,5′-tetramethylbenzidine peroxidase substrate system (Kirkegaard and Perry Laboratories, Gaithersburg, MD, USA). Optical densities of developed plates were quantitated in a SpectraMax Plus ELISA plate reader (Molecular Devices, Sunnyvale, CA, USA). Sera collected from mice on day 7 or day 14 after immunization with KLH were pooled and used as a standard comparator.

[18] = tested on: human peripheral blood mononuclear cells; assay: LPS (TLR4)-stimulated TNF-α in peripheral blood mononuclear cells; assay type: cell-based; conditions: PBMC
Description: as §5

[19] = target: Txk (Homo sapiens, UniProt P42681); assay: Txk enzymatic assay; conditions: ATP at apparent KM; read-out: Biochemical IC50, Txk
Description: as §6

[20] = tested on: human tonsillar B cells; assay: BCR-stimulated IL-6 from human tonsillar B cells; assay type: cell-based; conditions: B-cell, BCR (anti-IgM)
Description: as §4

[21] = tested on: Ramos B cells; assay: BCR-stimulated PLCγ2 phosphorylation in Ramos B cells; assay type: cell-based; conditions: Homo sapiens, anti-IgM, read-out: IC50, BTK-catalyzed phosphorylation of PLCγ2
Description: The cells were pelleted and lysed, and PLCγ2 levels were measured by immunoblot using rabbit anti-human phosphoY759-PLCγ2 (Cell Signaling Technology, Danvers, MA, USA) and analyzed using the Odyssey Infrared Imaging System (Li-Cor Biosciences, Lincoln, NE, USA) with normalization to an actin control to ensure consistent loading.

[22] = target: BLK (Homo sapiens, UniProt P51451); assay: BLK enzymatic assay; conditions: read-out: Biochemical IC50, BLK; ATP at apparent KM
Description: as §6

[23] = tested on: human monocytic osteoclast precursor cells; assay: RANK-L-induced osteoclastogenesis; assay type: cell-based; conditions: TRAP-positive multinucleated cells, 9 days in culture
Description: After 9 days in culture, cells were fixed and stained for tartrate-resistant acid phosphatase (TRAP; Sigma-Aldrich, St. Louis, MO, USA), and the number of TRAP-positive multinucleated cells (>2 nuclei per cell) was measured as described previously.

[24] = tested on: human tonsillar B cells; assay: cells; conditions: B-cell, read-out: IC50, Proliferation
Description: The cells were then labeled with [^3H]-thymidine and incubated overnight at 37°C. Cells were then harvested onto filter plates and the amount of [^3H]-thymidine incorporation, as a measure of B-cell proliferation, was determined using liquid scintillation counting.

[25] = tested on: B cells in human whole blood; assay: Human whole blood BCR-stimulated CD69 expression on B cells; assay type: cell-based; conditions: B-cell
Excerpt: The cells were stained with FITC-conjugated mouse anti-human CD20 (BD Pharmingen) and PE-conjugated mouse anti-human CD69 monoclonal antibody (BD Pharmingen), lysed and fixed, then washed. The amount of CD69 expression was quantitated by MFI after gating on the CD20-positive B-cell population as measured by FACS analysis.
The cells were stained with fluorescein isothiocyanate (FITC)-conjugated mouse anti-human CD20 (BD Pharmingen, San Diego, CA, USA) and phycoerythrin (PE)-conjugated mouse anti-human CD69 monoclonal antibody (BD Pharmingen), lysed, fixed, and then washed. The amount of CD69 expression was quantitated by MFI after gating on the CD20-positive B-cell population measured by FACS analysis.

[26] = target: Lck (Homo sapiens, UniProt P06239); assay: Lck enzymatic assay; conditions: read-out: Biochemical IC50, Lck
[27] = tested on: Ramos B cells; assay: BCR-stimulated calcium flux in Ramos B cells; assay type: cell-based; conditions: Homo sapiens, BCR (anti-IgM), read-out: IC50, Ca2+ flux
Description: BCR-stimulated calcium flux in Ramos B cells: Human Ramos (RA1) B cells, a Burkitt’s lymphoma cell line (ATCC, CRL-1596), pre-loaded with calcium indicator dye (BD Biosciences, San Jose, CA, USA) in media containing 10% FBS, were plated on black clear-bottom assay plates at a density of 1 × 10^6 cells/mL (150,000 cells per well).

[28] = tested on: human peripheral blood B cells; assay: CD40L-induced CD86 expression on peripheral blood B cells; assay type: cell-based; conditions: B-cell, CD40 (CD40L)
Excerpt: as §3

[29] = tested on: human peripheral blood B cells; assay: BCR-stimulated CD86 expression on human peripheral blood B cells; assay type: cell-based; conditions: B-cell, BCR (anti-IgM)
Excerpt: as §3

[30] = tested on: CIA DBA/1 mice; assay: CIA mouse model, preventative dosing, with or without murine CTLA-4-Ig; assay type: in vivo; conditions: BMS-986142 10 mg/kg PO QD
Description: as §1, §2

[31] = target: ITK (Homo sapiens, UniProt Q08881); assay: ITK enzymatic assay; conditions: ATP at apparent KM; read-out: Biochemical IC50, ITK
Description: as §7

[32] = tested on: basophils in human whole blood; assay: Human whole blood FcεRI (anti-IgE)-stimulated CD63 expression on basophils; assay type: cell-based; conditions: read-out: IC50, FcεRI-driven CD63 surface expression on basophils
Description: The blood was lysed and fixed, then washed. The percentage of CD63+ cells was measured after gating on the CCR3-positive basophil population by FACS analysis.
The blood was lysed, fixed, and then washed. The percentage of CD63+ cells was measured after gating on the C-C chemokine receptor type 3-positive basophil population by FACS analysis.

[33] = target: FGR (Homo sapiens, UniProt P09769); assay: FGR enzymatic assay; conditions: read-out: Biochemical IC50, FGR
FGR, sequence (P09769 whole entry, species assumed): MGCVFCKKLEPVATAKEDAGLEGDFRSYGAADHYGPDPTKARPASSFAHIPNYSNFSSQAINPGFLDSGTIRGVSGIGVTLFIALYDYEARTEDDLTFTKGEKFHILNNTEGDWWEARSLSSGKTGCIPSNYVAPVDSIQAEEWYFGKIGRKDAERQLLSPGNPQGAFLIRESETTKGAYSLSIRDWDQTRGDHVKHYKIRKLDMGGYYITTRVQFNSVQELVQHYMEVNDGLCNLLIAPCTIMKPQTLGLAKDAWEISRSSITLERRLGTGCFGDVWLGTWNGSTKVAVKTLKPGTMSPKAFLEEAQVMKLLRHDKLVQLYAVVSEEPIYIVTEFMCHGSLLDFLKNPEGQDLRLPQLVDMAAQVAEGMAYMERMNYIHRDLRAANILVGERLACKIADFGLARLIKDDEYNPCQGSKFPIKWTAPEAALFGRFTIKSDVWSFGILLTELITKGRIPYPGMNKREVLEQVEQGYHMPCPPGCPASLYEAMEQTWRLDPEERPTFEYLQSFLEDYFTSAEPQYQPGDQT

BMX, sequence (P51813 whole entry, species assumed): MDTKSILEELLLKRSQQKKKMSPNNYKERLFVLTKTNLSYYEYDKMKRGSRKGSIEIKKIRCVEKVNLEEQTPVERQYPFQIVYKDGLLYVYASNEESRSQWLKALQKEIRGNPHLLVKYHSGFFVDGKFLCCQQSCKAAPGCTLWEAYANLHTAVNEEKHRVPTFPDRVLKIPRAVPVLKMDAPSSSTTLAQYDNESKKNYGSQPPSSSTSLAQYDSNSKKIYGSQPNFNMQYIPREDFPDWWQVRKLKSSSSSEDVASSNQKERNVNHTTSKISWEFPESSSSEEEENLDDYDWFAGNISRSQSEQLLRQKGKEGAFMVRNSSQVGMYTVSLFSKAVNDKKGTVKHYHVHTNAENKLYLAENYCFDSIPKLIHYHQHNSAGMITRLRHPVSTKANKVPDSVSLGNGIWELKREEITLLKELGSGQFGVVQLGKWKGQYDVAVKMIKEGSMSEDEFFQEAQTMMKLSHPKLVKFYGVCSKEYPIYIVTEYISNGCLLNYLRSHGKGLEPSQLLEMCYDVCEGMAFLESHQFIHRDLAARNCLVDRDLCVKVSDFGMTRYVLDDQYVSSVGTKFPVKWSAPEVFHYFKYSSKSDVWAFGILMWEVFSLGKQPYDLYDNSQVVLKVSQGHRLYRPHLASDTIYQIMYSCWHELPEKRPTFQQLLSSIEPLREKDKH
Human recombinant BTK, sequence (Q06187 whole entry): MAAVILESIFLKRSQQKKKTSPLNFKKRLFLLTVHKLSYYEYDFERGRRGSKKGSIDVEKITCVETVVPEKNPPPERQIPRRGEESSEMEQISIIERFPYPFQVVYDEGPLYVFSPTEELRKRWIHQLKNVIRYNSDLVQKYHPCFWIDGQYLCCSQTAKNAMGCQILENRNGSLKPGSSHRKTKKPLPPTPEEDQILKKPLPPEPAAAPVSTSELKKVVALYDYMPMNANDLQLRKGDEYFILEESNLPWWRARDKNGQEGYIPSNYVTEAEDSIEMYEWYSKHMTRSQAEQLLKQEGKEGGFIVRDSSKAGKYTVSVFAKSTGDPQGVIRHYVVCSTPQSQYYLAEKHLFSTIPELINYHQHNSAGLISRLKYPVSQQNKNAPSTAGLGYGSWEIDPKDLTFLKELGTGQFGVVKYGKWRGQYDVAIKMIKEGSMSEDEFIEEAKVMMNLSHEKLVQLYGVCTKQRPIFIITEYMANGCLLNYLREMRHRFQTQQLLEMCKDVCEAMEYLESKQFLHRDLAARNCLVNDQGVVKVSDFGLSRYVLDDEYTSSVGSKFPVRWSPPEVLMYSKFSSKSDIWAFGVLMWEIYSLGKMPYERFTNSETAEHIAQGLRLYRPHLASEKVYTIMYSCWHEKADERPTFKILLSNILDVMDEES
BLK, sequence (P51451 whole entry, species assumed): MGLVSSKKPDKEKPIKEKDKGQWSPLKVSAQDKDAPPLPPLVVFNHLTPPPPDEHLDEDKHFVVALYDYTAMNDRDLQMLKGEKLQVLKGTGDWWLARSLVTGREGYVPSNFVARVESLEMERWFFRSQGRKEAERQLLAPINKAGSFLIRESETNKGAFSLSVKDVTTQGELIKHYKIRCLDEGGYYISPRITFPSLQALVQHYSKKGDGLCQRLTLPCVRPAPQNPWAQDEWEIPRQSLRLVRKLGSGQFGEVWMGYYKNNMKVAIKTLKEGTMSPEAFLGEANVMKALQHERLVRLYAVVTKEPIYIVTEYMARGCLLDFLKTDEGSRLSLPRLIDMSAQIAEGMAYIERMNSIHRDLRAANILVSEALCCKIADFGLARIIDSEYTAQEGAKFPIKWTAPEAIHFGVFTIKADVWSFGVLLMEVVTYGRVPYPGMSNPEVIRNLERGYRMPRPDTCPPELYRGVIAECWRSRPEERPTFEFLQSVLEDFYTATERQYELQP
IGF1R, sequence (P08069 31-1367, species assumed): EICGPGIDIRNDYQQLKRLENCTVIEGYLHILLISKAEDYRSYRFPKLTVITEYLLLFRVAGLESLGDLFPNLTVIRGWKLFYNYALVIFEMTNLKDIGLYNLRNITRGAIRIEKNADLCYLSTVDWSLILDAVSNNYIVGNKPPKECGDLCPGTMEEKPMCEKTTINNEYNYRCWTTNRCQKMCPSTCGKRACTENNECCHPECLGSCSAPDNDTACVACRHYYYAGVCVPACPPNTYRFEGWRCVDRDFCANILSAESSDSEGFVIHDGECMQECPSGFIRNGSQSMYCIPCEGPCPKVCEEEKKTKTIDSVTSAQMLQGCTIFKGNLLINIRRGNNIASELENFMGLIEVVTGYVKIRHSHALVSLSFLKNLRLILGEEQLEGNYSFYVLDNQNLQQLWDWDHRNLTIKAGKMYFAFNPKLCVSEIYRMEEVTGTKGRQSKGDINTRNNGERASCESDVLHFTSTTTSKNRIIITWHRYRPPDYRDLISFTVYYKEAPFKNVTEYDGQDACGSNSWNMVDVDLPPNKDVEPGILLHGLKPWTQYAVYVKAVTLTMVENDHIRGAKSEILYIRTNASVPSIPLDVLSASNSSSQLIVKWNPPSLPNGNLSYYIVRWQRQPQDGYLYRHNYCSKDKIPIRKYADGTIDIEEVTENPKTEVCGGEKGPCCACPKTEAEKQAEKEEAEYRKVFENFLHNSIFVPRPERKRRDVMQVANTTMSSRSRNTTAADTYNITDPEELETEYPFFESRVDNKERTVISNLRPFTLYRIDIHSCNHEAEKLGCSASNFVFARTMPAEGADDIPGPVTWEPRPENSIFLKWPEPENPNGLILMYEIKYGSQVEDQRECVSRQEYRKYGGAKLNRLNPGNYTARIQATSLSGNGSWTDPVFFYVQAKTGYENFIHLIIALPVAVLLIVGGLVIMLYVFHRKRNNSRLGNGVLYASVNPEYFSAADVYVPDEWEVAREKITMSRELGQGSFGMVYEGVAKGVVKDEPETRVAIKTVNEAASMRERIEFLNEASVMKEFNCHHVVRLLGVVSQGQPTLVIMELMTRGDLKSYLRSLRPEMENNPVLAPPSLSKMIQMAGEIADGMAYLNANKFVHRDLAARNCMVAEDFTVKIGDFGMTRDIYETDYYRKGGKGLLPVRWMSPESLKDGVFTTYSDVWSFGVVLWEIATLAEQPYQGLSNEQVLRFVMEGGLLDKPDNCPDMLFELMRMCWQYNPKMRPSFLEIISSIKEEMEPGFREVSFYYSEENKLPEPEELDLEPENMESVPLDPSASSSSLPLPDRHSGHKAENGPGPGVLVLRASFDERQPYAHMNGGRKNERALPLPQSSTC
Tec, sequence (P42680 whole entry): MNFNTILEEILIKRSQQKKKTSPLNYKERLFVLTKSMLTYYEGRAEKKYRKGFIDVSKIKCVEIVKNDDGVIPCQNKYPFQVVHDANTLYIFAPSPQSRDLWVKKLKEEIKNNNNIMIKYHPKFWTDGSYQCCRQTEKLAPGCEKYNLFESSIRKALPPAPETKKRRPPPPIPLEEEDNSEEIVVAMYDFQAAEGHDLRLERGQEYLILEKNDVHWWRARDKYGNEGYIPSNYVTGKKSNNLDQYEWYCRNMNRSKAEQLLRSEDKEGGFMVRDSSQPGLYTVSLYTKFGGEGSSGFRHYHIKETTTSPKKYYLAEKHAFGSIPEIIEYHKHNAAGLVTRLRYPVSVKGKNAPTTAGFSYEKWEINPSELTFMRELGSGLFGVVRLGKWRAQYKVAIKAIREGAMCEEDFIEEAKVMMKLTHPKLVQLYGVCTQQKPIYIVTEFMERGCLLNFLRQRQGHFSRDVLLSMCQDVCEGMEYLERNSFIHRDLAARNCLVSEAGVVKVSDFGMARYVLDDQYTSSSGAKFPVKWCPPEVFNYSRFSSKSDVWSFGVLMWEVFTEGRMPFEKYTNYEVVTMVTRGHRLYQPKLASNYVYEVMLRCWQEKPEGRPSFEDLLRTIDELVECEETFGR
Src, sequence (P12931 whole entry, species assumed): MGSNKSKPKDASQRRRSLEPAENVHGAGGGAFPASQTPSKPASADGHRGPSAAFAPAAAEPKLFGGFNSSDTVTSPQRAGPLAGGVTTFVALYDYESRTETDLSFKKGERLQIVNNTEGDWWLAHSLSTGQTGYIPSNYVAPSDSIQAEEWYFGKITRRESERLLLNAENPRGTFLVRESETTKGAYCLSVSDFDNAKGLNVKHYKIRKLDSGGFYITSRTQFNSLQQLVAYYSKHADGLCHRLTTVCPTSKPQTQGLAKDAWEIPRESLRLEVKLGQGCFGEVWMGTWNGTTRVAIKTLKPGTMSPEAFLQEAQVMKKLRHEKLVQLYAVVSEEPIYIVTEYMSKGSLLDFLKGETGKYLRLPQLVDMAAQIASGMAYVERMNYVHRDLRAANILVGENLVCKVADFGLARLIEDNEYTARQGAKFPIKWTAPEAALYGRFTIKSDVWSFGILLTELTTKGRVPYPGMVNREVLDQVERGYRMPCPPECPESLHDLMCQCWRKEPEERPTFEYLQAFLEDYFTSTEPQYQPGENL

## CN(Cc1cnc2nc(N)nc(N)c2n1)c1ccc(C(=O)N[C@@H](CCC(=O)O)C(=O)O)cc1 [MTX, methotrexate, reference compound]
[1]; MTX alone
  Reduction in inflammation and bone resorption (histology): 10%

## Cc1c(-c2c(F)cc(C(N)=O)c3[nH]c4c(c23)CC[C@H](C(C)(C)O)C4)cccc1-n1c(=O)c2cccc(F)c2n(C)c1=O [BMS-986142, 6-fluoro-5-(R)-(3-(S)-(8-fluoro-1-methyl-2,4-dioxo-1,2-dihydroquinazolin-3(4H)-yl)-2-methylphenyl)-2-(S)-(2-hydroxypropan-2-yl)-2,3,4,9-tetrahydro-1H-carbazole-8-carboxamide]
[2]
  IC50: 0.148 µM
[3]
  IC50: 0.032 µM
[4]
  IC50: 1.11 µM
[5]
  IC50: > 10 µM
[6]
  IC50: 0.003 ± 0.003 µM
[7]
  IC50: 0.0005 µM
[8]
  IC50: 0.247 µM
[9]
  IC50: 0.003 ± 0.003 µM
[10]; 2 mg/kg
  Clinical score reduction at end of study: 17%
[10]; 4 mg/kg
  Clinical score reduction at end of study: 37%
[10]; 25 mg/kg
  Clinical score reduction at end of study: 67%
[10]; therapeutic, 2, 4 and 25 mg/kg
  Disease-induced remodeling/erosions and loss of bone mass compared with vehicle (micro-CT): dose-dependent protection
[11]
  IC50: 0.14 µM
[12]
  IC50: ≤ 0.005 µM
[13]
  IC50: 0.004 ± 0.003 µM
[14]
  IC50: 0.003 ± 0.003 µM
[15]; 5 mg/kg, prophylactic
  Reduction of clinical scores at study end: 72%
[15]; 20 mg/kg, prophylactic
  Inhibition of clinical scores at study end: > 90%
[15]; 5 and 20 mg/kg
  Histological bone resorption and inflammation scores of hind paws: effective at reducing bone resorption as well as inflammation scores
[16]
  IC50: 0.01 µM
[17]; 30 mg/kg PO QD, day 7
  Inhibition of anti-KLH IgM response: 77%
[17]; 30 mg/kg PO QD, day 14
  Inhibition of anti-KLH IgG response: 87%
[17]; 10 and 30 mg/kg PO QD
  Anti-KLH IgM and IgG antibody responses versus vehicle: Significant reductions
[18]
  IC50: > 30 µM
[19]
  IC50: 0.028 µM
[20]
  IC50: 0.005 ± 0.003 µM
[21]
  IC50: ~0.02 µM
[22]
  IC50: 0.023 µM
[23]
  Lowest concentration at which inhibition of RANK-L-induced osteoclastogenesis was evident: 15 nM
[24]
  IC50: 0.003 ± 0.001 µM
[25]
  IC50: 0.09 µM
[26]
  IC50: 0.071 µM
[1]
  Disease-associated increase in splenic CD138+B220low plasma cells: inhibited
  Effect on B cell numbers: did not deplete B cells
  Expression of CD38 on plasma cells induced by disease: inhibited
[1]; 4 mg/kg PO QD
  Reduction in clinically evident disease at end of study: 26%
[1]; 10 mg/kg PO QD
  Reduction in clinically evident disease at end of study: 43%
[1]; 30 mg/kg PO QD
  Reduction in clinically evident disease at end of study: 79%
[1]; 10 and 30 mg/kg
  Serum anti-collagen II IgG titers: significantly inhibited
[1]; BMS-986142 4 mg/kg alone
  Reduction in inflammation and bone resorption (histology): 24%
[27]
  IC50: 0.009 ± 0.005 µM
[28]
  IC50: > 10 µM
[29]
  IC50: 0.004 ± 0.003 µM
[30]
  Reduction of clinical scores: 46%
[31]
  IC50: 0.015 µM
[32]
  IC50: 0.089 µM
[33]
  IC50: 0.081 µM
